Experiment [1] has as its system A549 cells. The experiment can be described thus: Confocal fluorescence microscopy of nucleic acid delivered by lipid in cells. The conditions noted are these: 4 μl lipid, boiling method; 6 hours of co-incubation. Format: cell-based, human. As to the method: Experimental materials: A549 cells (purchased from the Cell Center of the Chinese Academy of Medical Sciences), PGY-sRNA-6-Cy3 (purchased from Ribobio Biotechnology Co., Ltd.), lipid No. 41, Zeiss LSM780 (purchased from Zeiss, Germany), Alexa Fluor® 488 phalloidin (purchased from Invitrogen, USA), DAPI (purchased from Invitrogen, USA), paraformaldehyde (purchased from sigma, USA).
Experimental methods: PGY-sRNA-6-FAM was dissolved in 100 μl water, mixed with 4 μl lipid, and prepared by the boiling method. Then the mixture was dropped into A549 cells, and after 6 hours of co-incubation, the samples were washed three times with PBS, fixed with 4% paraformaldehyde, washed three times with PBS, stained with Alexa Fluor® 488 phalloidin for 30 min, washed 3 times with PBS, and stained with DAPI for 5 min, washed with PBS, and then sealed.
Experimental method: PGY-sRNA-6-FAM was dissolved in 100 μl water, and mixed with 4 μl lipid, and prepared by boiling method. Then, the mixture was dropped into A549 cells, and after 6 hours of co-incubation, the samples were washed three times with PBS, fixed with 4% paraformaldehyde, washed three times with PBS, stained with Alexa Fluor® 488 phalloidin for 30 min, washed 3 times with PBS, and stained with DAPI for 5 min, PBS washed, and then sealed.

Experiment [2] can be described thus: In vivo delivery of single-stranded sRNA by single lipid via gavage (blood, stomach, small intestine, liver). Set-up: species or system C57 mice. To be noted: 10 μl lipid, 1 nmol each sRNA (PGY-sRNA-23/-26/-32), heating method, 6 hours or 12 hours after administration. From the text: Tissues sampled: live/stomach/small intestine.
Experiment [3] deals with A549 cells. The experiment in a line: Digital PCR (ddPCR) detection of the efficiency of nucleic acid delivery by lipid. In kind it is cell-based, human. As to the method:
2.2 Experimental method: the total cellular RNA was collected and extracted by TRIzol lysis buffer according to the above methods, and reverse transcribed to cDNA using High capacity cRNA Reverse Transcription Kit, and the cDNA from different groups was subject to digital PCR reaction. Refering to the QX200 Droplet Reader and QuantaSoft Software manual for the protocols, the results were analyzed using QuantaSoft software.
2.2 Experimental method: total RNA was collected and extracted by TRIzol lysis buffer according to the above method, and reverse transcribed to cDNA using High capacity cRNA Reverse Transcription Kit, and the cDNA from different groups was subjected to digital PCR reaction. Refer to the QX200 Droplet Reader and QuantaSoft Software manual for the protocols; the results were analyzed using QuantaSoft software.
2.2 Experimental method: Total RNA was collected and extracted by TRIzol lysis buffer according to the above method, and reverse transcribed to cDNA using TaqMan™ MicroRNA Reverse Transcription KitHigh, and the cDNA from different groups was subjected to digital PCR reaction. Refer to the QX200 Droplet Reader and QuantaSoft Software manual for the protocols; the results were analyzed using QuantaSoft software.
2.2 Experimental method: Total RNA was collected and extracted by TRIzol lysis buffer according to the above method, and reversed to cDNA using High capacity cRNA Reverse Transcription Kit, and the cDNA from different groups was subjected to digital PCR reaction. Refer to the QX200 Droplet Reader and QuantaSoft Software manual for the protocols; the results were analyzed using QuantaSoft software.

For experiment [4], the system named is fibronectin protein expression in MRC-5 cells. The experiment in a line: Western blot of fibronectin after lipid-mediated delivery of anti-fibrotic HJT-sRNA into TGF-β1 stimulated MRC-5 cells. The conditions noted are these: nucleic acid 400 nM; TGF-β1 3 ng/mL; preparation method not given; FIG. 102. In kind it is cell-based. As to the method: 3.3.1 MRC-5 cell (pulmonary embryonic fibroblast), and A549 cell (human lung adenocarcinoma cell) were cultured to logarithmic growth phase, and then plated into 12-well plates at a cell density of 6×10^5/1 mL medium/well; MRC-5 cells were cultured in Eagle's MEM medium (MEM, Gibco); A549 cells were cultured in Ham's F-12 medium (HyClone); followed by incubation overnight at 37° C., and the follow-up experiments were performed after the cells were attached to the walls.
4) Lipid nucleic acid mixture: the mixture of lipid and nucleic acid prepared from the step 2 were added into cells and mixed, and the final concentration of nucleic acid was 400 nM.
3.3.3 After 24 hours of treatment, the cells were stimulated with the stimulant (1 μg/mL poly (I:C) (P1530, Sigma-Aldrich) as double-stranded RNA viruses mimetics) or 3 ng/mL transforming growth factor TGFβ1 (Pepro Tech)). […]

Another experiment concerns A549 cell. The experiment in a line: RT-qPCR detection of nucleic acid delivered by lipid into A549 cells. In kind it is cell-based, human. To be noted: double-stranded HJT-sRNA-m7 100 nM; reverse evaporation method; 12 hours; FIG. 99. On the procedure: 3.1 NCI-N87 cell (gastric cancer cell), MRC-5 cell (lung fibroblast), A549 cell (lung cancer cell) were cultured to logarithmic growth phase, and then plated to a six-well plate at cell density of 1×10^6/2 mL medium/well; MRC-5 cell was cultured in Eagle's MEM medium (MEM, Gibco); A549 cell was cultured in Ham's F-12 medium (HyClone); NCI-N87 cell was cultured in RPMI-1640 medium (HyClone); followed by incubation overnight at 37° C., and the follow-up experiments were performed after the cells were attached to the walls.
4) Lipid nucleic acid mixture: the mixture of lipid and HJT-sRNA-m7 prepared from the step 2 were added into cells and mixed, and the final concentration of RNA was kept at 200 nM.
3.3 After co-incubation with the small RNA for 3 hours, the cells were washed 2-3 times with PBS. The cells were harvested with TRIzol lysis buffer, and the total RNA was extracted. The abundance of small RNA that entered cells was detected by RT-qPCR, and the localization of RNA was detected by fluorescence in situ hybridization; protocols of each detection method were as follows:
3.3.1 RT-qPCR Detection of Small RNA (Taqman Probe Method)
3.3.2 RT-qPCR Detection of Small RNA (SYBR Green Dye Method)
Mixtures of soybean PC, lipid No. 11 (18:0/18:2) and lipid No. 12 (16:0/18:2), and various small RNA (see below Table 3) were prepared by the reverse evaporation method and then added into A549 cell line (the final concentration of sRNA was 200 nM); the negative control group (control) was directly added with the same concentration of sRNA; the positive control group (RNAimax) was transfected with Lipofectamine RNAimax (transfection reagent 6 μl/well). The abundance of sRNA in the cells was detected by Taqman probe after 3 hours, and the relative expression level of sRNA was calculated by 2-ΔCt method.
3.1.3 After co-incubation with cells for 12-24 hours, the cells were washed twice with PBS. The cells were harvested with TRIzol lysis buffer (purchased from Sigma-Aldrich), and total RNA was extracted. The abundance of HJT-sRNA-m7 that entered the cells was detected by RT-qPCR; the protocols were as follows:
4368813) was used to reverse transcribe sRNA to cDNA by stem-loop method (see, e.g. Real-time quantification of microRNAs by stem-loop RT-PCR, Nucleic Acids Res. 2005 Nov. 27; 33(20):e179, incorporated by reference herein).
In general terms: Real-time PCR tracks product formation cycle by cycle.

“Also recorded” adds a separate entry of the source.

On to `CCCCCCCC/C=C\CCCCCCCCCCCC(=O)O[C@H](COC(=O)CCCCCCCCCCCCCCC)COP(=O)(O)OCCN` [No. 40, (2-aminoethoxy)[(2R)-2-[(13Z)-docos-13-enoyloxy]-3-(hexadecanoyloxy)propoxy]phosphinic acid], for which, in the experiment with A549 cells [1], the “entry of PGY-sRNA-6-Cy3 observed under the confocal microscopy” value was “could effectively deliver single-stranded RNA into A549 cells”. The “entry of single-stranded small RNA into mouse blood (RT-qPCR)” value in experiment [2] is “could effectively deliver sRNA single-stranded nucleic acid into mouse blood via oral administration; also recorded: the delivery effect was better than POPC and Lipofectamine RNAiMAX”. The “delivery of HJT-sRNA-m7 dsRNA (ddPCR)” value is recorded as “could effectively deliver HJT-sRNA-m7 dsRNA into A549 cells” in the experiment with A549 cells [3] (boiling method, 6 hours) and “could effectively deliver HJT-sRNA-m7 dsRNA into A549 cells” with A549 cells [3] (reverse evaporation method, 6 hours (No. 39: 6 hours, 12 hours)). The “fibronectin protein expression after delivery of double-stranded HJT-sRNA-m7 (Western blot)” value in experiment [4] is on record as “to down-regulate fibronectin protein expression”. In addition, the “delivery effect relative to RNAiMAX (real-time PCR)” value in the experiment with A549 cell is on record as “½”.

Values taken from patent US20210108198A1, “APPLICATION OF COMPOUND OR TRADITIONAL CHINESE MEDICINE EXTRACT IN PREPARATION OF NUCLEIC ACID DELIVERY AGENT AND RELATED PRODUCTS THEREOF” (INSTITUTE OF BASIC MEDICAL SCIENCES CHINESE ACADEMY OF …, priority 2017, published 2021).
